# Experimental data reported in patent EP2607478A1, “Phenanthroline treated MSC” (Universiteit Twente, priority 2011, dated 2013).
# Test system: MSCs
# Experiment: Whole genome expression analysis (Illumina microarray) of treated MSCs
# Assay type: cell-based, Human
# Experimental: MSCs were seeded in T25 flasks at 5000 cells/cm^2 and allowed to attach overnight in proliferation medium. […] After 48 hours, RNA was isolated as described above. From 500 ng of RNA, cRNA was synthesized using the Illumina TotalPrep RNA amplification Kit (Ambion), according to the manufacturer's protocol and the quality of RNA and cRNA was verified on a Bioanalyzer 2100 (Agilent). Microarrays were performed using Illumina HT-12 v4 expression Beadchips, according to the manufacturer's protocol. Briefly, 750 ng of cRNA was hybridized on the array overnight after which the array was washed and blocked. Then, by addition of streptavidin Cy-3 a fluorescent signal was developed. Arrays were scanned on an Illumina iScan reader and raw intensity values were background corrected in GenomeStudio (Illumina). Further data processing and statistical testing were performed with R and Bioconductor statistical software (www.bioconductor.org), using package lumi. Raw intensity values were transformed using variance stabilization and a quantile normalization was performed. A linear modelling approach with empirical Bayesian methods, as implemented in Limma package (54), was applied for differential expression analysis of the resulting probe-level expression values. A gene list, containing only those genes with an absolute 1.5-fold change between different treatments, was uploaded to Ingenuity Pathway Analysis (IPA) software and used for core analysis. Pathways or networks with a p-value of 0.05 were considered statistically significant.
structure (smiles),measurement,setting,value
"CC(=O)N(O)CCCCCNC(=O)CCC(=O)N(O)CCCCCNC(=O)CCC(=O)N(O)CCCCCN [DFO, reference compound]",interleukin-8 (Il-8) gene expression,"MSCs treated for two days, 150 µM DFO or 200 µM PHE",did not affect this gene at all
same,"expression of HRE-containing genes (metabolism, cell growth and survival, endothelial genes)","MSCs treated for two days, 150 µM DFO or 200 µM PHE, relative to basic medium",increased expression
same,logFC(D142_ DFO - D142_BAS) NTN4,"ProbeID ILMN 2113490, DFO versus Bas","2,23"
same,logFC(D142_ DFO - D142_BAS) HIST1H2BD,"ProbeID ILMN_1651496, DFO versus Bas","3,33"
same,logFC(D142_ DFO - D142_BAS) PFKFB4,"ProbeID ILMN_1653292, DFO versus Bas","3,53"
same,logFC(D142_ DFO - D142_BAS) FZD2,"ProbeID ILMN_1653711, DFO versus Bas","-2,10"
same,logFC(D142_ DFO - D142_BAS),"ProbeID ILMN_1655796, DFO versus Bas","2,46"
same,logFC(D142_ DFO - D142_BAS) PLAU,"ProbeID ILMN_1656057, DFO versus Bas","-2,69"
same,logFC(D142_ DFO - D142_BAS) C1orf198,"ProbeID ILMN_1657683, DFO versus Bas","-2,30"
same,logFC(D142_ DFO - D142_BAS) KRTAP2-1,"ProbeID ILMN_1658448, DFO versus Bas","2,71"
same,logFC(D142_ DFO - D142_BAS) SLC2A1,"ProbeID ILMN_1659027, DFO versus Bas","3,46"
same,logFC(D142_ DFO - D142_BAS) HIST2H2AA3,"ProbeID ILMN_1659047, DFO versus Bas","2,07"
same,logFC(D142_ DFO - D142_BAS) C7orf68,"ProbeID ILMN_1659990, DFO versus Bas","3,04"
same,logFC(D142_ DFO - D142_BAS) LOC728285,"ProbeID ILMN_1660067, DFO versus Bas","2,89"
same,logFC(D142_ DFO - D142_BAS) PFKFB3,"ProbeID ILMN_1660847, DFO versus Bas","2,48"
same,logFC(D142_ DFO - D142_BAS) DDIT4,"ProbeID ILMN_1661599, DFO versus Bas","4,37"
same,logFC(D142_ DFO - D142_BAS) CDC20,"ProbeID ILMN_1663390, DFO versus Bas","-3,40"
same,logFC(D142_ DFO - D142_BAS) MGC87042,"ProbeID ILMN_1663575, DFO versus Bas","-2,17"
same,logFC(D142_ DFO - D142_BAS) PPP1R14C,"ProbeID ILMN_1664855, DFO versus Bas","2,96"
same,logFC(D142_ DFO - D142_BAS) ERRFI1,"ProbeID ILMN_1665510, DFO versus Bas","2,53"
same,logFC(D142_ DFO - D142_BAS) C1orf24,"ProbeID ILMN_1667966, DFO versus Bas","2,70"
same,logFC(D142_ DFO - D142_BAS) PPM1D,"ProbeID ILMN_1670875, DFO versus Bas","2,06"
same,logFC(D142_ DFO - D142_BAS) ACTA2,"ProbeID ILMN_1671703, DFO versus Bas","-2,61"
same,logFC(D142_ DFO - D142_BAS) JAM2,"ProbeID ILMN_1672350, DFO versus Bas","2,05"
same,logFC(D142_ DFO - D142_BAS) TFRC,"ProbeID ILMN_1674243, DFO versus Bas","2,31"
same,logFC(D142_ DFO - D142_BAS) MTHFD2,"ProbeID ILMN_1674706, DFO versus Bas","2,79"
same,logFC(D142_ DFO - D142_BAS) MT3,"ProbeID ILMN_1675947, DFO versus Bas","3,00"
same,logFC(D142_ DFO - D142_BAS) DDIT3,"ProbeID ILMN_1676984, DFO versus Bas","3,92"
same,logFC(D142_ DFO - D142_BAS) CHN1,"ProbeID ILMN_1678493, DFO versus Bas","-2,71"
same,logFC(D142_ DFO - D142_BAS) SLC3A2,"ProbeID ILMN_1679041, DFO versus Bas","2,26"
same,logFC(D142_ DFO - D142_BAS) CLK1,"ProbeID ILMN_1679727, DFO versus Bas","2,03"
same,logFC(D142_ DFO - D142_BAS) MAFF,"ProbeID ILMN_1680139, DFO versus Bas","2,48"
same,logFC(D142_ DFO - D142_BAS) GPRC5A,"ProbeID ILMN_1682599, DFO versus Bas","2,35"
same,logFC(D142_ DFO - D142_BAS) IER3,"ProbeID ILMN_1682717, DFO versus Bas","2,14"
same,logFC(D142_ DFO - D142_BAS) RRAD,"ProbeID ILMN_1683179, DFO versus Bas","2,83"
same,logFC(D142_ DFO - D142_BAS) GPT2,"ProbeID ILMN_1684158, DFO versus Bas","2,16"
same,logFC(D142_ DFO - D142_BAS) INHBB,"ProbeID ILMN_1685714, DFO versus Bas","2,06"
same,logFC(D142_ DFO - D142_BAS) TOP2A,"ProbeID ILMN_1686097, DFO versus Bas","-2,19"
same,logFC(D142_ DFO - D142_BAS) COLEC12,"ProbeID ILMN_1689088, DFO versus Bas","-3,20"
same,logFC(D142_ DFO - D142_BAS) CXCL12,"ProbeID ILMN_1689111, DFO versus Bas","-2,92"
same,logFC(D142_ DFO - D142_BAS) PDLIM7,"ProbeID ILMN_1690125, DFO versus Bas","-2,43"
same,logFC(D142_ DFO - D142_BAS) CRABP2,"ProbeID ILMN_1690170, DFO versus Bas","-2,06"
same,logFC(D142_ DFO - D142_BAS) STC2,"ProbeID ILMN_1691884, DFO versus Bas","3,54"
same,logFC(D142_ DFO - D142_BAS) PSAT1,"ProbeID ILMN_1692938, DFO versus Bas","3,93"
same,logFC(D142_ DFO - D142_BAS) P4HA1,"ProbeID ILMN_1693334, DFO versus Bas","3,24"
same,logFC(D142_ DFO - D142_BAS) GADD45A,"ProbeID ILMN_1694075, DFO versus Bas","2,63"
same,logFC(D142_ DFO - D142_BAS) KIF20A,"ProbeID ILMN_1695658, DFO versus Bas","-2,76"
same,logFC(D142_ DFO - D142_BAS) DDIT4L,"ProbeID ILMN_1696537, DFO versus Bas","-2,14"
same,logFC(D142_ DFO - D142_BAS) TNFRSF10B,"ProbeID ILMN_1699265, DFO versus Bas","2,74"
